We go through one molecule from patent publication US12186284B2, “Antimicrobial formulations for the treatment of veterinary hoof infections” (Provita Eurotech Ltd, priority 2016, dated 2025).

The test system of test [1] is Escherichia coli (NCTC12241). Kind of test: Rate of kill assay based on BS EN 1276:1997, clean and dirty conditions. It is filed as cell-based. The following applies: 3× MIC (0.375% v/v; CS 0.15% w/v). An excerpt: The rate of kill assay is based on the British and European standard test conditions BS EN 1276:1997.
The initial inoculum of microorganism ranged between 10^6-10^7 colony forming units per mL.

The subject of test [2] is Escherichia coli (NCTC12241). Briefly: Minimum inhibitory concentration (MIC). It is filed as cell-based. The following applies: three times the minimum inhibitory concentration.

For the molecule `O=S(=O)([O-])[O-].[Cu+2]` [CS, copper sulphate], the “Surviving Bacterial Count (cfu/mL) under clean and dirty conditions” value is 3.2 × 10^6 cfu/mL in test [1] (contact time 0 s, clean (no bovine albumin)); 1.4 × 10^7 cfu/mL in test [1] (contact time 0 s, dirty (0.3% bovine albumin)); 1.7 × 10^6 cfu/mL in test [1] (contact time 30 s, clean (no bovine albumin)); 1.1 × 10^7 cfu/mL in test [1] (contact time 30 s, dirty (0.3% bovine albumin)); 6.2 × 10^5 cfu/mL in test [1] (contact time 60 s, clean (no bovine albumin)); 9.7 × 10^6 cfu/mL in test [1] (contact time 60 s, dirty (0.3% bovine albumin)). The “Surviving Bacterial Count (cfu/mL) under clean and dirty conditions” value in test [1] (contact time 120 s, clean (no bovine albumin)) is recorded as 3.3 × 10^5 cfu/mL; in test [1] (contact time 120 s, dirty (0.3% bovine albumin)), 5.2 × 10^6 cfu/mL; in test [1] (contact time 300 s, clean (no bovine albumin)) it was 5.0 × 10^3 cfu/mL; in test [1] (contact time 300 s, dirty (0.3% bovine albumin)), 3.2 × 10^4 cfu/mL. In test [2], this molecule had a 3MIC of 0.15%.
